Source: patent US20230212549A1, “COMPOUNDS COMPRISING A […] LIGAND AND USE THEREOF” (priority 2021, published 2023)
Numbered stars: 1 amine (or outer) side, 2 acyl side, 3 side chain; on linkers, the order of the positions; unused ones are H or OH. Bridge positions count the residues as written; N and C are the ends. Square brackets hold non-standard residues; d marks the D form. Peptide text beside a SMILES is read from it. * marks the point of attachment. TBMB(SCH2CH2NH-DOTA) = O=C(O)CN1CCN(CC(=O)O)CCN(CC(=O)NCCSCc2cc(C[*:1])cc(C[*:2])c2)CCN(CC(=O)O)CC1; X13 = O=C(O)CN1CCN(CC(=O)O)CCN(CC(=O)N2CCN(Cc3cc(C[*:1])cc(C[*:2])c3)CC2)CCN(CC(=O)O)CC1; 1Nal = N[C@@H](Cc1cccc2ccccc12)C(=O)O; Pentanesulfonyl = CCCCCS(=O)(=O)*; Hexanoyl = CCCCCC(=O)*; Sar = CNCC(=O)O

Experiments:
[1] = molecular target: T1, FAP-expressing human WI-38 fibroblasts (Homo sapiens, UniProt Q12884); assay: Competitive FACS binding assay
T1 construct: FAP-expressing human WI-38 fibroblasts (ECACC) were cultured in EMEM; host or cells: WI-38 human fibroblasts
Description: Cells were analyzed in an Attune NxT flow cytometer. […] […].
Cells were analyzed in an Attune NxT flow cytometer. […]

Human recombinant FAP [2] = molecular target: T2, Human recombinant FAP (Homo sapiens, UniProt Q12884); assay: Surface plasmon resonance (Biacore) assay; type: binding; conditions: for pKD Category: Biacore assay
Human recombinant FAP [3] = molecular target: T2, Human recombinant FAP; assay: FRET-based FAP protease activity assay; type: biochemical; set-up: purchased R&D systems 3715-SE; conditions: pIC50 Category (Activity), 37° C.
[4] = FRET-based FAP protease activity assay, recombinant human FAP

T2 sequence (Q12884 whole entry): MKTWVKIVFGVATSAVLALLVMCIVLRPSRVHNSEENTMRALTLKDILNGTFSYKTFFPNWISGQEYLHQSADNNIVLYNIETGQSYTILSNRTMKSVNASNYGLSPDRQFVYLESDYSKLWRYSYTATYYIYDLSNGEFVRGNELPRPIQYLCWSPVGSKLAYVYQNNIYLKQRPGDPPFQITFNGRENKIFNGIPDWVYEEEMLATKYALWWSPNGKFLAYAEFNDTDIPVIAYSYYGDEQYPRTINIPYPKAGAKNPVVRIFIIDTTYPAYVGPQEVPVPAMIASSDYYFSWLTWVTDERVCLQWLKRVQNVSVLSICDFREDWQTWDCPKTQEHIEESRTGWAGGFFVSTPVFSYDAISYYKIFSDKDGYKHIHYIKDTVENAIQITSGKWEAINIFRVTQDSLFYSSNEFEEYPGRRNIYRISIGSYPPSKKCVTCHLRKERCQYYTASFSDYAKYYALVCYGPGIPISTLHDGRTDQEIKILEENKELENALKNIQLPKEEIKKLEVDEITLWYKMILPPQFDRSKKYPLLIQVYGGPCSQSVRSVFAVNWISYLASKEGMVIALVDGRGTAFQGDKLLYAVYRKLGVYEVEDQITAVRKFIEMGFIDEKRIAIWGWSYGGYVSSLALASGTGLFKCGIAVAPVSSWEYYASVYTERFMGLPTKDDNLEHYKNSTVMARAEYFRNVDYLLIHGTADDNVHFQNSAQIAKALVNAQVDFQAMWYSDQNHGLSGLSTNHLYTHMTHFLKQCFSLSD
T1 sequence (Q12884 whole entry): as above

SMILES | IC50 [1] [nM] | Kd (Human recombinant FAP [2]) [nM] | IC50 (Human recombinant FAP [3]; [4]) [nM] | pKD Category (Human recombinant FAP [2]) | IC50 (Human recombinant FAP [3]; FRET-peptide substrate) [nM]
CCCCCC(=O)N[C@H]1CSCc2cc(CSCCNC(=O)CN3CCN(CC(=O)O)CCN(CC(=O)O)CCN(CC(=O)O)CC3)cc(c2)CSC[C@@H](C(=O)O)NC(=O)[C@H](Cc2cccc3ccccc23)NC(=O)[C@H](CCC(N)=O)NC(=O)[C@H]([C@@H](C)O)NC(=O)[C@@H]2CCCN2C(=O)[C@@H]2CCCN2C1=O [3BP-3650, Hex-[Cys(tMeBn(DOTA-AET))-Pro-Pro-Thr-Gln-1Ni-Cys]-OH] (Hexanoyl-CPPTQ[1Nal]C-OH; linker 1-7 via TBMB(SCH2CH2NH-DOTA)) | < 10 | < 10 | < 10 | – | –
CCCCCC(=O)N[C@H]1CSCc2cc(CSCCNC(=O)CN3CCN(CC(=O)O)CCN(CC(=O)O)CCN(CC(=O)O)CC3)cc(c2)CSC[C@@H](C(N)=O)NC(=O)[C@H](Cc2ccccc2)NC(=O)[C@H](CCC(N)=O)NC(=O)[C@H]([C@@H](C)O)NC(=O)[C@@H]2CCCN2C(=O)[C@@H]2CCCN2C1=O [3BP-3652, Hex-[Cys(tMeBn(DOTA-AET))-Pro-Pro-Thr-Gln-Phe-Cys]-NH2] | < 10 | < 10 | < 10 | – | –
CCCCCC(=O)N[C@H]1CSCc2cc(CSCCNC(=O)CN3CCN(CC(=O)O)CCN(CC(=O)O)CCN(CC(=O)O)CC3)cc(c2)CSC[C@@H](C(N)=O)NC(=O)[C@H](Cc2ccccc2)NC(=O)[C@H](CCC(=O)O)NC(=O)[C@H]([C@@H](C)O)NC(=O)[C@@H]2CCCN2C(=O)[C@@H]2CCCN2C1=O [3BP-3653, Hex-[Cys(tMeBn(DOTA-AET))-Pro-Pro-Thr-Glu-Phe-Cys]-NH2] (Hexanoyl-CPPTEFC-NH2; linker 1-7 via TBMB(SCH2CH2NH-DOTA)) | < 10 | < 10 | < 10 | – | –
CCCCCC(=O)N[C@H]1CSCc2cc(CSCCNC(=O)CN3CCN(CC(=O)O)CCN(CC(=O)O)CCN(CC(=O)O)CC3)cc(c2)CSC[C@@H](C(=O)NCC(=O)O)NC(=O)[C@H](Cc2ccccc2)NC(=O)[C@H](CCC(N)=O)NC(=O)[C@H]([C@@H](C)O)NC(=O)[C@@H]2CCCN2C(=O)[C@@H]2CCCN2C1=O [3BP-3656, Hex-[Cys(tMeBn(DOTA-AET))-Pro-Pro-Thr-Gln-Phe-Cys]-Gly-OH] (Hexanoyl-CPPTQFCG-OH; linker 1-7 via TBMB(SCH2CH2NH-DOTA)) | < 10 | < 10 | < 10 | – | –
CCCCCC(=O)N[C@H]1CSCc2cc(CSCCNC(=O)CN3CCN(CC(=O)O)CCN(CC(=O)O)CCN(CC(=O)O)CC3)cc(c2)CSC[C@@H](C(=O)NCCCC(=O)O)NC(=O)[C@H](Cc2ccccc2)NC(=O)[C@H](CCC(N)=O)NC(=O)[C@H]([C@@H](C)O)NC(=O)[C@@H]2CCCN2C(=O)[C@@H]2CCCN2C1=O [3BP-3657, Hex-[Cys(tMeBn(DOTA-AET))-Pro-Pro-Thr-Gln-Phe-Cys]-Gab-OH] | < 10 | < 10 | < 10 | – | –
CCCCCC(=O)N[C@H]1CSCc2cc(CSCCNC(=O)CN3CCN(CC(=O)O)CCN(CC(=O)O)CCN(CC(=O)O)CC3)cc(c2)CSC[C@@H](C(=O)N[C@@H](CO)C(=O)O)NC(=O)[C@H](Cc2ccccc2)NC(=O)[C@H](CCC(N)=O)NC(=O)[C@H]([C@@H](C)O)NC(=O)[C@@H]2CCCN2C(=O)[C@@H]2CCCN2C1=O [3BP-3658, Hex-[Cys(tMeBn(DOTA-AET))-Pro-Pro-Thr-Gln-Phe-Cys]-Ser-OH] (Hexanoyl-CPPTQFCS-OH; linker 1-7 via TBMB(SCH2CH2NH-DOTA)) | < 10 | < 10 | < 10 | – | –
CCCCCC(=O)N[C@H]1CSCc2cc(CSCCNC(=O)CN3CCN(CC(=O)O)CCN(CC(=O)O)CCN(CC(=O)O)CC3)cc(c2)CSC[C@@H](C(=O)N(C)CC(=O)O)NC(=O)[C@H](Cc2ccccc2)NC(=O)[C@H](CCC(N)=O)NC(=O)[C@H]([C@@H](C)O)NC(=O)[C@@H]2CCCN2C(=O)[C@@H]2CCCN2C1=O [3BP-3659, Hex-[Cys(tMeBn(DOTA-AET))-Pro-Pro-Thr-Gln-Phe-Cys]-Nmg-OH] | < 10 | < 10 | < 10 | – | –
CCCCCC(=O)N[C@H]1CSCc2cc(CSCCNC(=O)CN3CCN(CC(=O)O)CCN(CC(=O)O)CCN(CC(=O)O)CC3)cc(c2)CSC[C@@H](C(=O)N[C@H](CC(=O)O)Cc2ccccc2)NC(=O)[C@H](Cc2ccccc2)NC(=O)[C@H](CCC(N)=O)NC(=O)[C@H]([C@@H](C)O)NC(=O)[C@@H]2CCCN2C(=O)[C@@H]2CCCN2C1=O [3BP-3660, Hex-[Cys(tMeBn(DOTA-AET))-Pro-Pro-Thr-Gin-Phe-Cys]-Bhf-OH] | < 10 | < 10 | < 10 | – | –
CCCCCC(=O)N[C@H]1CSCc2cc(CSCCNC(=O)CN3CCN(CC(=O)O)CCN(CC(=O)O)CCN(CC(=O)O)CC3)cc(c2)CSC[C@@H](C(=O)O)NC(=O)[C@H](Cc2ccccc2)NC(=O)[C@H](CCC(N)=O)NC(=O)[C@H]([C@@H](C)O)NC(=O)[C@@H]2CCCN2C(=O)CN(C)C1=O [3BP-3678, Hex-[Cys(tMeBn(DOTA-AET))-Nmg-Pro-Thr-Gln-Phe-Cys]-OH] (Hexanoyl-C[Sar]PTQFC-OH; linker 1-7 via TBMB(SCH2CH2NH-DOTA)) | < 10 | < 10 | < 10 | – | –
CCCCCC(=O)N[C@H]1CSCc2cc(CSCCNC(=O)CN3CCN(CC(=O)O)CCN(CC(=O)O)CCN(CC(=O)O)CC3)cc(c2)CSC[C@@H](C(=O)O)NC(=O)[C@H](Cc2ccccc2)NC(=O)[C@H](CCC(N)=O)NC(=O)[C@H]([C@@H](C)O)NC(=O)[C@@H]2C[C@@H](O)CN2C(=O)[C@@H]2CCCN2C1=O [3BP-3679, Hex-[Cys(tMeBn(DOTA-AET))-Pro-Hyp-Thr-Gln-Phe-Cys]-OH] | < 10 | < 10 | < 10 | – | –
CCCCCC(=O)N[C@H]1CSCc2cc(CSCCNC(=O)CN3CCN(CC(=O)O)CCN(CC(=O)O)CCN(CC(=O)O)CC3)cc(c2)CSC[C@@H](C(=O)O)NC(=O)[C@H](Cc2ccccc2C(F)(F)F)NC(=O)[C@H](CCC(N)=O)NC(=O)[C@H]([C@@H](C)O)NC(=O)[C@@H]2CCCN2C(=O)[C@@H]2CCCN2C1=O [3BP-3680, Hex-[Cys(tMeBn(DOTA-AET))-Pro-Pro-Thr-Gln-Otf-Cys]-OH] | < 10 | < 10 | < 10 | – | –
CCCCCC(=O)N[C@H]1CSCc2cc(CSCCNC(=O)CN3CCN(CC(=O)O)CCN(CC(=O)O)CCN(CC(=O)O)CC3)cc(c2)CSC[C@@H](C(=O)N[C@H](CC(=O)O)C(N)=O)NC(=O)[C@H](Cc2ccccc2)NC(=O)[C@H](CCC(N)=O)NC(=O)[C@H]([C@@H](C)O)NC(=O)[C@@H]2CCCN2C(=O)[C@@H]2CCCN2C1=O [3BP-3681, Hex-[Cys(tMeBn(DOTA-AET))-Pro-Pro-Thr-Gln-Phe-Cys]-asp-NH2] | < 10 | < 10 | < 10 | – | –
CCCCCS(=O)(=O)N[C@H]1CSCc2cc(cc(CN3CCN(C(=O)CN4CCN(CC(=O)O)CCN(CC(=O)O)CCN(CC(=O)O)CC4)CC3)c2)CSC[C@@H](C(=O)N[C@@H](CC(=O)O)C(N)=O)NC(=O)[C@H](Cc2ccccc2)NC(=O)[C@H](CCC(N)=O)NC(=O)[C@H]([C@@H](C)O)NC(=O)[C@@H]2CCCN2C(=O)[C@@H]2CCCN2C1=O [3BP-3692, Pentyl-SO2-[Cys(tMeBn(DOTA-PP))-Pro-Pro-Thr-Gln-Phe-Cys]-Asp-NH2] (Pentanesulfonyl-CPPTQFCD-NH2; linker 1-7 via X13) | < 10 | < 10 | < 10 | – | –
CC(C)CCC(=O)N[C@H]1CSCc2cc(CSCCNC(=O)CN3CCN(CC(=O)O)CCN(CC(=O)O)CCN(CC(=O)O)CC3)cc(c2)CSC[C@@H](C(=O)O)NC(=O)[C@H](Cc2ccccc2)NC(=O)[C@H](CCC(N)=O)NC(=O)[C@H]([C@@H](C)O)NC(=O)[C@@H]2CCCN2C(=O)[C@@H]2CCCN2C1=O [3BP-3907, iHex-[Cys(tMeBn(DOTA-AET))-Pro-Pro-Thr-Gln-Phe-Cys]-OH] | < 10 | < 10 | – | A (Category A stands for pKD values >8.0) | < 10
CCCCC(=O)N[C@H]1CSCc2cc(CSCCNC(=O)CN3CCN(CC(=O)O)CCN(CC(=O)O)CCN(CC(=O)O)CC3)cc(c2)CSC[C@@H](C(=O)O)NC(=O)[C@H](Cc2ccccc2)NC(=O)[C@H](CCC(N)=O)NC(=O)[C@H]([C@@H](C)O)NC(=O)[C@@H]2CCCN2C(=O)[C@@H]2CCCN2C1=O [3BP-3910, Pent-[Cys(tMeBn(DOTA-AET))-Pro-Pro-Thr-Gln-Phe-Cys]-OH] | < 10 | < 10 | – | A (Category A stands for pKD values >8.0) | < 10
CCOCCC(=O)N[C@H]1CSCc2cc(CSCCNC(=O)CN3CCN(CC(=O)O)CCN(CC(=O)O)CCN(CC(=O)O)CC3)cc(c2)CSC[C@@H](C(=O)O)NC(=O)[C@H](Cc2ccccc2)NC(=O)[C@H](CCC(N)=O)NC(=O)[C@H]([C@@H](C)O)NC(=O)[C@@H]2CCCN2C(=O)[C@@H]2CCCN2C1=O [3BP-3918, EtOPr-[Cys(tMeBn(DOTA-AET))-Pro-Pro-Thr-Gln-Phe-Cys]-OH] | < 10 | < 10 | – | A (Category A stands for pKD values >8.0) | < 10
